Measurements reported in patent US20230257468A1, “CIS-Binding Siglec Agonists and Related Compositions And Methods” (The Board of Trustees of the Leland Stanford Junior …, priority 2020, published 2023).

Key:
Assay type in all cases: cell-based, human
[1] = tested on: neutrophils; test: Oxidative burst (ROS) in neutrophils
[2] = tested on: PADI4 substrate H3; test: Western blot of H3 citrullination in neutrophils
[3] = tested on: primary neutrophils; test: Live-cell imaging NETosis assay, primary neutrophils; details: healthy neutrophils in vitro
Protocol: (a-c) Primary neutrophils were cotreated with R848 (10 μM) and glycopolypeptide (500 nM) in IMDM supplemented 0.5% hiFBS containing the membrane impermeable DNA intercalators Cytotox Green or Red (250 nM). Images were acquired by fluorescence microscopy every 15 min for 12 h. The area of all green fluorescent objects >300 μm^2 was quantified and the total area was averaged across three images per well. Relative NETosis was determined by normalizing to the maximal NET area from R848 treatment alone (t=8 h). (a) Representative phase contrast and fluorescence images from t=8 h. Scale bars indicate 40 μm. (b) Quantitation of NETosis over time as area under the curve in (c). Error bars represent SD. (c) NET formation and degradation as a function of time. Error bands represent SEM. (d) Treatment of R848-stimulated neutrophils with various glycopolypeptides. Error bars represent SD. […] Statistics were determined by two-way ANOVA (b) or one-way ANOVA (c,d,f). * p<0.05; ** p<0.01; *** p<0.001; **** p<0.0001.
TLR agonists were assayed using the live-cell imaging techniques in which freshly isolated neutrophils are cultured in low-serum media in the presence of a fluorogenic and membrane impermeable DNA-intercalating dye (Cytotox Green). Upon genomic DNA-externalization by NETosis, dye intercalates and fluorescence increases. […]

[4] = tested on: dHL-60 cells; test: NETosis in neutrophil-like dHL-60 cells
Protocol: (a-c) Primary neutrophils were cotreated with R848 (10 μM) and glycopolypeptide (500 nM) in IMDM supplemented 0.5% hiFBS containing the membrane impermeable DNA intercalators Cytotox Green or Red (250 nM). Images were acquired by fluorescence microscopy every 15 min for 12 h. The area of all green fluorescent objects >300 μm^2 was quantified and the total area was averaged across three images per well. Relative NETosis was determined by normalizing to the maximal NET area from R848 treatment alone (t=8 h). (a) Representative phase contrast and fluorescence images from t=8 h. Scale bars indicate 40 μm. (b) Quantitation of NETosis over time as area under the curve in (c). Error bars represent SD. (c) NET formation and degradation as a function of time. Error bands represent SEM. (d) Treatment of R848-stimulated neutrophils with various glycopolypeptides. Error bars represent SD. (e) pS9L is a mucin-like glycopolypeptide that bears high affinity and specific ligands for Siglec-9 and is functionalized with a membrane-tethering lipid tail. (f) HL-60 cells were transfected with siRNAs against SIGLEC9 (encoding Siglec-9), PTPN6 (encoding SHP-1), or a scrambled control and then grown for two days. Cells were then cotreated with R848 (10 μM) and vehicle or pS9L (500 nM). […] Statistics were determined by two-way ANOVA (b) or one-way ANOVA (c,d,f). * p<0.05; ** p<0.01; *** p<0.001; **** p<0.0001. […]

Compound | inhibition of pS9L-induced oxidative burst [1] | citrullination of H3 [2] | induction of NETosis [3] | induction of NETosis [4]
O=S(=O)(O)c1ccc2cc(N=Nc3cc(S(=O)(=O)O)c4cccnc4c3O)ccc2c1 [NSC-87877] | the oxidative burst was inhibited |  |  | 
CCCCCCCCCCCCCC(=O)O[C@@H]1[C@@H](C)[C@@]2(O)[C@@H](C=C(CO)C[C@]3(O)C(=O)C(C)=C[C@@H]23)[C@@H]2C(C)(C)[C@]12OC(C)=O [PMA, phorbol-12-myristate-13-acetate] |  | only yields moderate citrullination |  | 
CCOCc1nc2c(N)nc3ccccc3c2n1CC(C)(C)O [R848] |  | rapidly induced citrullination at R2, R8, and R17 | sufficient to induce NETosis | induced NETosis
